According to publication PMC6934184, “Selective DNA-PKcs inhibition extends the therapeutic index of localized radiotherapy and chemotherapy” (The Journal of Clinical Investigation, 2019):
Values joined by “and” are separate entries in the source; they are usually repeats but may differ in a detail not shown here. Identical values can stand only once.

Columns and labels:
ATM = ATM (Homo sapiens, UniProt Q13315); experiment: SelectScreen Profiling IC50; format: biochemical
Description: (§1) The in vitro kinase selectivity of NU5455 was determined using the SelectScreen Broad Assay Panel (Thermo Fisher Scientific) involving activity and binding assays (Supplemental Table 1). […] Class IA PI3Ks were measured using the p85α subunit.
(§2) PI3K Kinase NU5455 IC (nM) Fold selectivity
(§3) Supplemental Table 2. NU5455 potency and selectivity across the PI3K kinase family.
(§4) µM NU5455 for DNA-PK versus other PIKK and PI3K family members was assessed by SelectScreen Profiling (Life Technologies). The
(§5) ATP concentration was the Kmapp except for * where the ATP concentration was 10 μM (mean ± SEM, n=4-7).

ATR = ATR (Homo sapiens, UniProt Q13535); experiment: SelectScreen Profiling IC50; format: biochemical
ATR, sequence (Q13535 whole entry): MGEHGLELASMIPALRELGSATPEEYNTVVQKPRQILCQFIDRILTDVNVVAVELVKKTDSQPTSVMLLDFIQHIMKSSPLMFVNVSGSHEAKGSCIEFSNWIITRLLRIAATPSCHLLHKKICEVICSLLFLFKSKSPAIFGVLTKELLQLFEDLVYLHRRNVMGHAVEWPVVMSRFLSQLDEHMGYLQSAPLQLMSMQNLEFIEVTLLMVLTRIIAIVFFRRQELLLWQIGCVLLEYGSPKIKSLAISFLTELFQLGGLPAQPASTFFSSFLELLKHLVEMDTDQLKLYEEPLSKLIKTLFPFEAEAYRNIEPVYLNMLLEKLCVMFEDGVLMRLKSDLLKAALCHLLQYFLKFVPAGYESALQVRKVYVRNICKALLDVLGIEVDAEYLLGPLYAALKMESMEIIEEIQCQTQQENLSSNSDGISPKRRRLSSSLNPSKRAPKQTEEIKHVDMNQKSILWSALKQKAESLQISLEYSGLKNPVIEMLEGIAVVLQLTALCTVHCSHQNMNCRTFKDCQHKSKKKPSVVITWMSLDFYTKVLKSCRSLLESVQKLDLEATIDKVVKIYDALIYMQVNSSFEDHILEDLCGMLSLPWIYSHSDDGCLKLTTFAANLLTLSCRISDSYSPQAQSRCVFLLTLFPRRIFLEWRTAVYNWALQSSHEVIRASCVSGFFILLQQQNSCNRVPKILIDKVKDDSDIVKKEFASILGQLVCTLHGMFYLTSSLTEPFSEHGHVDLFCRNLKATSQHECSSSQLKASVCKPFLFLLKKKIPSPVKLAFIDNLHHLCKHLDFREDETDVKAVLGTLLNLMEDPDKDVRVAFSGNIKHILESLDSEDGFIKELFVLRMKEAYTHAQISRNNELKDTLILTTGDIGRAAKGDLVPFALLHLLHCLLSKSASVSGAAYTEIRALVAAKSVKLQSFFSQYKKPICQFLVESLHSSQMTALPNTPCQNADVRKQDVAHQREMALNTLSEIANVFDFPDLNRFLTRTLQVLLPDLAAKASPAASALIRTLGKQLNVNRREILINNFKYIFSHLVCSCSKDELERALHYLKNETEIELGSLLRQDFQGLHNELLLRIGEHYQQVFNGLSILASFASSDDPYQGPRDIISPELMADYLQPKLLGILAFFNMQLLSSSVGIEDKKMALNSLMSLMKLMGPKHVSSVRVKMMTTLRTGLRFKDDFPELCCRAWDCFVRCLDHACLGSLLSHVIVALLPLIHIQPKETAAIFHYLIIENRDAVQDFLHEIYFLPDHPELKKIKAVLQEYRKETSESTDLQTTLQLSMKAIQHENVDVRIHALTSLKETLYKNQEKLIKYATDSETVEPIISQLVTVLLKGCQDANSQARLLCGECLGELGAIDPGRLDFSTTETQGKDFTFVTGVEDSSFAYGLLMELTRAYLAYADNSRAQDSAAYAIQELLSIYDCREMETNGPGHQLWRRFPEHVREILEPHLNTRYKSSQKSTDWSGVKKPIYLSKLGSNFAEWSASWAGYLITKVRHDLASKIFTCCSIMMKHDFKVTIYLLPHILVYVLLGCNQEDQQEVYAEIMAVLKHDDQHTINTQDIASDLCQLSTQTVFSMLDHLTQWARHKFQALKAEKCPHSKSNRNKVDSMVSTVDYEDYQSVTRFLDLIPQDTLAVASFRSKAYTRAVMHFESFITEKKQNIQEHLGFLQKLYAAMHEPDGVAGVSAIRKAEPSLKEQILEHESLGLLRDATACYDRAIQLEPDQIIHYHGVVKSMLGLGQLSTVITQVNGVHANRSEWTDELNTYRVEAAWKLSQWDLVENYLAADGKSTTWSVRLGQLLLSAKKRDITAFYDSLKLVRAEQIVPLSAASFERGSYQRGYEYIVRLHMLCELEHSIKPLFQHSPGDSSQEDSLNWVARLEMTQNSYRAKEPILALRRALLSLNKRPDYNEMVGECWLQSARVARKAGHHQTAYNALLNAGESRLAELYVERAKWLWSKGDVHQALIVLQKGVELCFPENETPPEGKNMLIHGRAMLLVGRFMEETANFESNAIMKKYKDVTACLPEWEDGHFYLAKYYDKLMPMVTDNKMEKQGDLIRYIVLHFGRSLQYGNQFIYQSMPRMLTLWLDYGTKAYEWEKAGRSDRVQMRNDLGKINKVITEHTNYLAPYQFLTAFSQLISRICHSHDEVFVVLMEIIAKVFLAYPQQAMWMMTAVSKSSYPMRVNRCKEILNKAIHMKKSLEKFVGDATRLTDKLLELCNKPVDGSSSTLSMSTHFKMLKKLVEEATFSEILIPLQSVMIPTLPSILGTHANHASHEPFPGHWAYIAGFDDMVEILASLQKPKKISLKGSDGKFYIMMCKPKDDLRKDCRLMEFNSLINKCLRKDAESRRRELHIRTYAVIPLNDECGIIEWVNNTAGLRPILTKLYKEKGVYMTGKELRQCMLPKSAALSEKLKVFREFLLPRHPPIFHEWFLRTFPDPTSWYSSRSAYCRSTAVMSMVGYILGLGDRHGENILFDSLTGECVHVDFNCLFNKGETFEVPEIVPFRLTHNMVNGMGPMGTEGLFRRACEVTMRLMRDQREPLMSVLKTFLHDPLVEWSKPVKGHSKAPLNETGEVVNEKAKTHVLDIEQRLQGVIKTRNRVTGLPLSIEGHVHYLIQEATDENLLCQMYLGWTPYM
ATR, sequence (Q8WXE1 whole entry partner): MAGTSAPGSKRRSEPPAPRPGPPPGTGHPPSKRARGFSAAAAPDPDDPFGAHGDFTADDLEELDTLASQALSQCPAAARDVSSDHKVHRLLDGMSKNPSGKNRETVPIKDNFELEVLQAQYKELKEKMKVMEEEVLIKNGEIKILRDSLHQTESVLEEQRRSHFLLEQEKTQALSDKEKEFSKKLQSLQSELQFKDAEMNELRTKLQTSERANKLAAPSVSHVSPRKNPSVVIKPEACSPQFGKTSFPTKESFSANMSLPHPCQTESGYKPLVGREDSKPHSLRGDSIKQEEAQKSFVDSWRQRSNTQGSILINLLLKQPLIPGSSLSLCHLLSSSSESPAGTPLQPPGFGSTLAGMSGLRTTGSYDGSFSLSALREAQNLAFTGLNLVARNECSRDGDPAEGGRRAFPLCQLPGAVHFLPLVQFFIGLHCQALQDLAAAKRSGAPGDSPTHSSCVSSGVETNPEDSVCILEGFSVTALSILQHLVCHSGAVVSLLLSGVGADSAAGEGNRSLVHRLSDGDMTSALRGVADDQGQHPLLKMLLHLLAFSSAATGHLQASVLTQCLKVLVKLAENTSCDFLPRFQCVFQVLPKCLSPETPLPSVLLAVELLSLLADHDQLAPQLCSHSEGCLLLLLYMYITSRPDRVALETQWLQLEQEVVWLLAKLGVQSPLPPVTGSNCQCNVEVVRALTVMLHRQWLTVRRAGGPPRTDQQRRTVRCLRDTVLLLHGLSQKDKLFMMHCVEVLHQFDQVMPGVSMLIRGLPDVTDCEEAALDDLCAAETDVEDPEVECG
Description: as §1, §2, §3, §4, §5

DNA-PK = DNA-PK (Homo sapiens, UniProt P78527); experiment: SelectScreen Profiling IC50; format: biochemical; details: cell-free; ATP Km app; mean ± SEM, n=4-7; read-out: NU5455 IC50
Description: as §1, §2, §3, §4, §5

PI3K-C2α = PI3K-C2α (Homo sapiens, UniProt O00443); experiment: SelectScreen Profiling IC50; format: biochemical
PI3K-C2α, sequence (O00443 whole entry): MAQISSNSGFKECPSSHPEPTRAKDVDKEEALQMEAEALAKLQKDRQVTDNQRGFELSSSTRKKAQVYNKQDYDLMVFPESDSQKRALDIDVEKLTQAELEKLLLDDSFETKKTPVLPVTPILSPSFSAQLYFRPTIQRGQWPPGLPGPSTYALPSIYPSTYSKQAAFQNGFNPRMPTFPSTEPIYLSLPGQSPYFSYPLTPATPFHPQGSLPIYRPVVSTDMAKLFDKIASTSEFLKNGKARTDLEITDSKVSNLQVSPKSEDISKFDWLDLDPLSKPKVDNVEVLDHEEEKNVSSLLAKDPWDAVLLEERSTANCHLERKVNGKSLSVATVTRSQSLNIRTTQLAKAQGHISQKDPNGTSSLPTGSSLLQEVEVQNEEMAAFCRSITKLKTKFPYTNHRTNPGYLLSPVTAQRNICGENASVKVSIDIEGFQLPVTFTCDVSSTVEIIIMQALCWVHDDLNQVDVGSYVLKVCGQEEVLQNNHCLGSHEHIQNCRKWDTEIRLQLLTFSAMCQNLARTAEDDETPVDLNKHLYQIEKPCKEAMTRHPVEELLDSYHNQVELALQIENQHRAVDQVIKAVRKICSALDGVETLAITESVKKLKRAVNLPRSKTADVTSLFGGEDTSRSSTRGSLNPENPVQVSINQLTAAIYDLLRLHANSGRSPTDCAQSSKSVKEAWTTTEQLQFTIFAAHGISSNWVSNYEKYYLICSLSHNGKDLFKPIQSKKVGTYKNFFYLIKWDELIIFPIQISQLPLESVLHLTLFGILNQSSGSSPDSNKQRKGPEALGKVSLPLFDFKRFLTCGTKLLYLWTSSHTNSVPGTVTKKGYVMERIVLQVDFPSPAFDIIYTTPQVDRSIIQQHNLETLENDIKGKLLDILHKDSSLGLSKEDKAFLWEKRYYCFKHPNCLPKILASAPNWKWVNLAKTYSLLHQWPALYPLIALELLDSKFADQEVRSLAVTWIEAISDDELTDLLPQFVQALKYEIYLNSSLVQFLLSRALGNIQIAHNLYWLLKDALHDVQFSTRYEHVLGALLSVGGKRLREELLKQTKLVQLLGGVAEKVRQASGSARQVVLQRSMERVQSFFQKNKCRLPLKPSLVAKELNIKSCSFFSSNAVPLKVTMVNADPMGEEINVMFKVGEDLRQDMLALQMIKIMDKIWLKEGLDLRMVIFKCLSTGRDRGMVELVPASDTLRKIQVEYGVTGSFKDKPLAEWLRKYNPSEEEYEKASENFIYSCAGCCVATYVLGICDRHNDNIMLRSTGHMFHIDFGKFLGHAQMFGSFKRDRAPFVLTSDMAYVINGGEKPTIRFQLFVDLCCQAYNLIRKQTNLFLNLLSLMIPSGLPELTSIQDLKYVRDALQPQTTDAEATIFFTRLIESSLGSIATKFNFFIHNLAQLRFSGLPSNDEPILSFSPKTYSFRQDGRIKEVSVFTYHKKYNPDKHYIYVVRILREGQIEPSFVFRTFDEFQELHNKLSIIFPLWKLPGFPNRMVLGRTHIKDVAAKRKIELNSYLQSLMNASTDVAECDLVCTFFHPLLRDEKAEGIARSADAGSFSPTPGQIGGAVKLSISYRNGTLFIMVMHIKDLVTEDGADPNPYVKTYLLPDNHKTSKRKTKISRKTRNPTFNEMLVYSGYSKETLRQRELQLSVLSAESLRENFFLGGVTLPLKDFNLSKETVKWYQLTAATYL
Description: as §1, §2, §3, §4, §5

PI3K-C2β = PI3K-C2β (Homo sapiens, UniProt O00750); experiment: SelectScreen Profiling IC50; format: biochemical; details: ATP 10 μM
Description: as §1, §2, §3, §4, §5

PI3K-C2γ = PI3K-C2γ (Homo sapiens, UniProt O75747); experiment: SelectScreen Profiling IC50; format: biochemical
Description: as §1, §2, §3, §4, §5

Vps34 = Vps34 (Homo sapiens, UniProt Q8NEB9); experiment: SelectScreen Profiling IC50; format: biochemical
Description: as §1, §2, §3, §4, §5

mTOR = mTOR (Homo sapiens, UniProt P42345); experiment: SelectScreen Profiling IC50; format: biochemical
Description: as §1, §2, §3, §4, §5

p110α = p110α (Homo sapiens, UniProt P42336); experiment: SelectScreen Profiling IC50; format: biochemical
Description: as §1, §2, §3, §4, §5

p110β = p110β (Homo sapiens, UniProt P42338); experiment: SelectScreen Profiling IC50; format: biochemical
Description: as §1, §2, §3, §4, §5

p110γ = p110γ (Homo sapiens, UniProt P48736); experiment: SelectScreen Profiling IC50; format: biochemical
Description: as §1, §2, §3, §4, §5

p110δ = p110δ (Homo sapiens, UniProt O00329); experiment: SelectScreen Profiling IC50; format: biochemical
Description: as §1, §2, §3, §4, §5

MCF7 cells = experiment: clonogenic survival with IR; format: cell-based, Human; details: 1 μM
Description: Cell line γH2AX and 53BP1 foci immunofluorescence and quantitation
Cells grown on coverslips or in 96-well plates were treated with 1 or 5 µM NU5455 or DMSO 1 hour prior to irradiation (0, 2.5 or 10 Gy) using an RS 320 X-ray Research System (Gulmay Medical). At set timepoints (15 or 30 minutes, or 1, 4, 5, 6, or 24 hours post-irradiation), cells were washed and fixed in methanol or 3% paraformaldehyde (PFA). […] In A549 and Calu-6, cells were Hoechst stained (5 µg/ml), and the average numbers of γH2AX and 53BP1 foci per cell were quantified from 400 nuclei per sample using an In Cell analyzer 1000 (GE Healthcare). For MCF7 cells, coverslips were mounted using Vectashield mounting medium with DAPI (Vector Labs) and imaged using a Leica TCS SPE confocal fluorescence microscope. Total fluorescence intensity was determined using ImagePro Plus 5.0 software (Media Cybernetics). […]
Cells were washed in phosphate-buffered saline (PBS), trypsinized and counted. […] Colonies were fixed using Carnoys fixture (75% v/v methanol, 25% v/v acetic acid, Fisher), stained with crystal violet (0.4% w/v in water), and counted using a ColCount automated colony counter (Oxford Optronics). Cell survival was calculated as a percentage of the untreated control. […]

[1] = cell-free, ATP Km app, read-out: NU5455 IC50
[2] = cell-free, ATP Km app, mean ± SEM, read-out: NU5455 IC50
[3] = cell-free, ATP Km app, p85α subunit, mean ± SEM, read-out: NU5455 IC50

CN(C(=O)CN1CCOCC1)c1ccc2sc3c(-c4cccc5c(=O)cc(N6CC7CCC(C6)O7)oc45)cccc3c2c1 [NU5455]
IC50 (ATM; [1]): > 10000 nM | Fold selectivity for DNA-PK (ATM; versus ATM): > 1220 fold and > 1200 fold | IC50 (ATR; [1]): > 10000 nM | Fold selectivity for DNA-PK (ATR; versus ATR): > 1220 fold and > 1200 fold | IC50 (DNA-PK): 8.2 ± 2 nM | IC50 (PI3K-C2α; [1]): > 10000 nM | Fold selectivity for DNA-PK (PI3K-C2α; versus PI3K-C2α): > 1220 fold | IC50 (PI3K-C2β; cell-free, mean ± SEM, read-out: NU5455 IC50): 1960 ± 424 nM | Fold selectivity for DNA-PK (PI3K-C2β; versus PI3K-C2β): 239 fold | IC50 (PI3K-C2γ; [1]): > 10000 nM | Fold selectivity for DNA-PK (PI3K-C2γ; versus PI3K-C2γ): > 1220 fold | IC50 (Vps34; [2]): 71 ± 19 nM | Fold selectivity for DNA-PK (Vps34; versus Vps34): 8.7 fold | IC50 (mTOR; [2]): 4060 ± 1120 nM | Fold selectivity for DNA-PK (mTOR; versus mTOR): 495 fold | IC50 (p110α; [3]): 1870 ± 216 nM | Fold selectivity for DNA-PK (p110α; versus p110α (PI3Kα)): 228 fold | IC50 (p110β; [3]): 9320 ± 1240 nM | Fold selectivity for DNA-PK (p110β; versus p110β): 1137 fold | IC50 (p110γ; [1]): > 10000 nM | Fold selectivity for DNA-PK (p110γ; versus p110γ): > 1220 fold | IC50 (p110δ; [3]): 276 ± 22 nM | Fold selectivity for DNA-PK (p110δ; versus p110δ (PI3Kδ)): 33.7 fold | radio-enhancement (LD80) (MCF7 cells; 24-hour treatment after IR): 2.4 fold | radio-enhancement (LD80) (MCF7 cells; 1 hour of treatment after IR): 1.2 fold
